According to ChEMBL document CHEMBL3621105, “Synthesis and evaluation of a bis-3-chloropiperidine derivative incorporating an anthraquinone pharmacophore” (Bioorg Med Chem Lett, 2015):
Active and inactive are the calls of the source. The calls are words filed in the database; no cut-off is given here.

Legend:
[1] = Induction of alkylation of 5'-FAM-labelled scrambled duplex oligonucleotide DNA (unknown origin) at guanine residues G1 to G4 after 24 hrs by sequencing gel analysis
Escherichia coli [2] = assay: Induction of Escherichia coli supercoiled pBR322 DNA cleavage assessed as formation of open circular form of DNA after 24 hrs at 25 degC by agarose gel electrophoresis
[3] = Induction of alkylation of 5'-FAM-labelled scrambled duplex oligonucleotide DNA (unknown origin) at guanine residues G1 to G4 at 5 to 50 uM after 24 hrs by sequencing gel analysis
Escherichia coli [4] = assay: Induction of Escherichia coli supercoiled pBR322 DNA cleavage assessed as formation of linear form of DNA at 0.5 to 50 uM after 24 hrs at 25 degC by agarose gel electrophoresis
Escherichia coli [5] = assay: Induction of Escherichia coli supercoiled pBR322 DNA cleavage at 50 uM after 24 hrs at 25 degC by agarose gel electrophoresis
[6] = Induction of alkylation of 5'-FAM-labelled scrambled duplex oligonucleotide DNA (unknown origin) at guanine residues G1 to G4 at 50 uM after 24 hrs by sequencing gel analysis

COc1ccc(OC(=O)[C@H](CCCCN2CC(Cl)CC(C)(C)C2)N2CC(Cl)CC(C)(C)C2)c2ccccc12 (some centres not stated)
Activity [1]: Dose-dependent effect

CC1(C)CC(Cl)CN(CCCC[C@@H](C(=O)OCc2ccc3c(c2)C(=O)c2ccccc2C3=O)N2CC(Cl)CC(C)(C)C2)C1 (some centres not stated)
Activity (Escherichia coli [2]): Dose-dependent effect | Activity [3]: Active | Activity (Escherichia coli [4]): inactive

O=C(O)CCCc1ccc(N(CCCl)CCCl)cc1
Activity (Escherichia coli [5]): inactive | Activity [6]: inactive

CC1(C)CC(Cl)CN(CCCC[C@@H](C(=O)Oc2cccc3ccccc23)N2CC(Cl)CC(C)(C)C2)C1 (some centres not stated)
Activity [1]: Dose-dependent effect
